Assay: gradient 5% acetonitrile 3 min, to 50% in 2 min, to 85% in 15 min, held 3 min, 100 µL/min
Details: column: Zorbax Extend-C18 2.1 x 50 mm; eluents: water / acetonitrile, 0.1% formic acid
Outline: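 Each retention time is based on an adduct peak selected computationally and verified by manual inspection. Measurements used HPLC–quadrupole time-of-flight mass spectrometry in positive and negative ionization mode on mixtures of ~100 pure standards. Chromatography ran on a Zorbax Extend-C18 column (2.1 × 50 mm, 1.8 μm) at 100 μL/min with water and acetonitrile, each containing 0.1% formic acid, and dead and dwell volumes of 40 μL and 900 μL.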

Row | SMILES | RP-LC retention time [s]
1 | Cc1cccc(-c2nc(CNC(=O)CCC(F)(F)F)no2)c1 | 870
2 | CC(C)n1cnc(S(=O)(=O)N2CCCC(C(=O)Nc3cccc(F)c3)C2)c1 (configuration not stated) | 726
3 | Cc1oc(-c2[nH]ncc2C(=O)N2CCCC2)cc1S(=O)(=O)NCc1ccc(F)cc1F | 710
4 | O=C(COc1ccc2c(-c3ccccc3)cc(=O)oc2c1)N1CCC2(O)CCCCC2C1 (configuration not stated) | 845
5 | NC(=O)C1(c2cccc(C(F)(F)F)c2)CC1 | 764
6 | O=C(c1cccc2[nH]ccc12)N1CCC2(CC1)N=C(c1ccc(Cl)cc1)NO2 | 804
7 | CCn1cc(-c2ccc(Cl)cc2)cc1C(=O)NC(C)c1ccccn1 (configuration not stated) | 843
8 | CCc1ccc(NC(=O)c2sc3nc(C)nc(N4CCN(c5ccccn5)CC4)c3c2C)cc1 | 779
9 | CCN1CCN(c2cc(C)c3cc(NC(=O)C4CCCCC4)ccc3n2)CC1 | 579
10 | Nc1cc(C2CCN(C(=O)c3cccnc3)CC2)no1 | 554
11 | CC(C)Cn1cc(S(=O)(=O)Nc2cccc(C#N)c2)c2cccnc21 | 916
12 | COc1cccc(N2CCN(Cc3nc(-c4ccc(N5CCC(C)CC5)nc4)no3)CC2)c1 | 1020
13 | Cc1nc(-c2cc(S(=O)(=O)Nc3ccccc3Cl)c(C)s2)sc1C | 1120
14 | COC(=O)C1=CN(c2cccc(F)c2)c2cc(Br)ccc2S1(=O)=O | 928
15 | COc1ccc(CCNC(=O)CN2C(=O)NC(c3ccc(Cl)cc3)C3=C2COC3=O)cc1OC (configuration not stated) | 750
16 | CCN1C(=O)c2cccnc2Sc2cc(CNC(=O)c3cnccn3)ccc21 | 683
17 | CC1=C(c2ccc(C)cc2)S(=O)(=O)N=C1N1CCC(NC(=O)Cc2cccs2)CC1 | 858
18 | CC(C)c1ccc(-c2nc(C3CC(=O)N(c4ccc(Cl)cc4)C3)no2)cc1 (configuration not stated) | 1300
19 | O=C(c1ccsc1)N1CCCC(c2nncn2-c2ccccc2)C1 (configuration not stated) | 667

Row | SMILES | RP-LC retention time [s]
20 | Cc1ccc(NC(=O)C2CCCN(C(=O)C3Sc4ccccc4NC3=O)C2)cc1C (configuration not stated) | 862
21 | CC(C)CCNC(=O)C1CCCN(c2nc3ccsc3c(=O)n2-c2ccc(F)cc2)C1 (configuration not stated) | 884
22 | Cc1ccccc1NC(=O)N1CCC2(CC1)NC(=O)c1ccc(F)cc1N2C | 747
23 | CC(C)(C)C(=O)N1CCCC(c2ccnc(-c3ccccc3)n2)C1 (configuration not stated) | 1020
24 | COc1cc(CN(CC2CCCO2)C(=O)c2oc3ccccc3c2C)cc(OC)c1OC (configuration not stated) | 1030
25 | Cc1ccccc1CNC(=O)c1c(C)sc2ccn(CC(C)C)c(=O)c12 | 1010
26 | O=C(CSc1ccc(N2CCCC(C(=O)NC3CC3)C2)nn1)Nc1ccccc1Br (configuration not stated) | 664
27 | O=C(Cn1ccc2ccc(N3CCOCC3)nc21)N1CCC(Cc2ccccc2)CC1 | 1050
28 | O=NN(CCCl)C(=O)NCc1ccc[n+]([O-])c1 | 587
29 | CCOc1cc(=O)n2c(c1C(=O)NCCCOC(C)C)CCCCC2 | 646
30 | O=C(Cn1c(=O)cc(C(=O)N2CCCCC2)c2ccccc21)NC1CCCCC1 | 753
31 | O=C(c1cnn2cc(Br)cnc12)N1CCCC1c1ccccc1F (configuration not stated) | 841
32 | CC(C)c1nc2cccnc2n1CCN1CCN(C(=O)Nc2ccccc2Br)CC1 | 603
33 | Cc1cccc(-c2noc(C3CCCN3C(=O)Nc3cccc(F)c3)n2)c1 (configuration not stated) | 1050
34 | CCOC(=O)CNC(=O)N1CCCC1c1ccc(OC)cc1 (configuration not stated) | 728
35 | COCc1c(C(=O)N2CC(F)(F)C[C@H]2c2nc(C)no2)noc1C | 778
36 | O=C1C(N2CCN(S(=O)(=O)c3ccccc3F)CC2)CCN1Cc1ccccn1 (configuration not stated) | 571
37 | O=S(=O)(NC1CCN(Cc2ccccc2)CC1)c1cc(-c2cc(C(F)(F)F)on2)cs1 | 776
